# Patent publication US20100298141A1, “SUBSTITUTED PYRIDINE N-OXIDE HERBICIDES” (E. I. DU PONT DE NEMOURS AND COMPANY, priority 2007, published 2010)
# Assays:
# large crabgrass = experiment: Test F preemergence test; type: in vivo, Digitaria sanguinalis; details: scale 0 to 100
# Description: (§1) Seeds of plant species selected from bermudagrass (Cynodon dactylon), Surinam grass (Brachiaria decumbens), large crabgrass (Digitaria sanguinalis), green foxtail (Setaria viridis), goosegrass (Eleusine indica), johnsongrass (Sorghum halepense), kochia (Kochia scoparia), pitted morningglory (Ipomoea lacunosa), purple nutsedge (Cyperus rotundus), common ragweed (Ambrosia elation), mustard (Brassica nigra), guineagrass (Panicum maximum), […] (Paspalum dilatatum), barnyardgrass (Echinochloa crus-galli), southern sandbur (Cenchrus echinatus), common sowthistle (Sonchus oleraceous), prickly […] spinosa), Italian ryegrass (Lolium multiflorum), common purslane (Portulaca oleracea), broadleaf signalgrass (Brachiaria platyphylla), common groundsel (Senecio vulgaris), common chickweed (Stellaria media), Virginia dayflower (Commelina virginica), annual bluegrass (Poa annua), naked crabgrass (Digitaria nuda), […] cochinchinensis), quackgrass (Elytrigia repens), Canada horseweed (Conyza canadensis), field bindweed (Convolvulus arvensis), […] (Bidens bipinnata), common mallow (Malva sylvestris), Russian thistle (Salsola kali), and sugarcane (Saccharum officinarum) were planted and treated preemergence with test chemicals formulated in a non-phytotoxic solvent mixture which included a surfactant. At a different time, sugarcane was treated with postemergence applications of some of the test chemicals formulated in the same manner. Plants were approximately 3- to 4-leaf stage for the postemergence treatments. Treated plants and controls were maintained in a greenhouse for 14 to 21 days, after which time all species were compared to controls and visually evaluated. […] A dash (-) response means no test result.
# Surinam grass = experiment: Test F preemergence test; type: in vivo, Brachiaria decumbens; details: scale 0 to 100
# Description: as §1
# downy brome = experiment: Test C pre-/postemergence test; type: in vivo, Bromus tectorum
# Description: Seeds of plant species selected from blackgrass (Alopecurus myosuroides), downy brome (Bromus tectorum), green foxtail (Setaria viridis), Italian ryegrass (Lolium multiflorum), wheat (Triticum aestivum), wild oat (Avena fatua), catchweed bedstraw (Galium aparine), Russian thistle (Salsola kali), […] (Cynodon dactylon), Surinam grass (Brachiaria decumbens), cocklebur (Xanthium strumarium), corn (Zea mays), crabgrass (Digitaria sanguinalis), woolly cupgrass (Eriochloa villosa), giant foxtail (Setaria faberii), Goosegrass (Eleusin indica), johnsongrass (Sorghum halepense), kochia (Kochia scoparia), lambsquarters (Chenopodium album), morningglory (Ipomoea coccinea), eastern black nightshade (Solanum ptycanthum), yellow nutsedge (Cyperus esculentus), pigweed (Amaranthus retroflexus), common ragweed (Ambrosia elation), soybean (Glycine max), common (oilseed) sunflower (Helianthus annuus), and velvetleaf (Abutilon theophrasti) were planted and treated preemergence with test chemicals formulated in a non-phytotoxic solvent mixture which included a surfactant. At the same time, plants selected from these crop and weed species and also winter barley (Hordeum vulgare), canarygrass (Phalaris minor), and chickweed (Stellaria media) were treated with postemergence applications of some of the test chemicals formulated in the same manner. Plants ranged in height from 2 to 18 cm (1- to 4-leaf stage) for postemergence treatments. […] At time of treatment, test pots were flooded to 3 cm above the soil surface, treated by application of test compounds directly to the paddy water, and then maintained at that water depth for the duration of the test. […] A dash (-) response means no test result.
# crabgrass = experiment: Test A pre-/postemergence greenhouse test; type: in vivo, Digitaria sanguinalis; details: for Plant response rating, Crabgrass, Large: 0 to 100 scale where 0 is no effect and 100 is complete control; for Crabgrass, Large plant response rating: 0 to 100 scale
# Outline: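 Planting was into mixed loam soil and sand; preemergence treatment followed as a directed soil spray. Concurrently, emerged plants (one- to two-leaf, 2–10 cm) received postemergence applications of identically formulated compound (non-phytotoxic solvent, surfactant). After approximately ten days under greenhouse conditions, injury was judged by eye against untreated plants.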
# common ragweed = experiment: Test F preemergence test; type: in vivo, Ambrosia elation; details: scale 0 to 100
# Description: as §1
# green foxtail = experiment: Test F preemergence test; type: in vivo, Setaria viridis; details: scale 0 to 100
# Description: as §1
# field bindweed = experiment: Test F preemergence test; type: in vivo, Convolvulus arvensis; details: scale 0 to 100
# Description: as §1
# johnsongrass = experiment: Test F preemergence test; type: in vivo, Sorghum halepense; details: scale 0 to 100
# Description: as §1
# Italian ryegrass = experiment: Test F preemergence test; type: in vivo, Lolium multiflorum; details: scale 0 to 100
# Description: as §1
# itchgrass = experiment: Test F preemergence test; type: in vivo, Rottboellia cochinchinensis; details: scale 0 to 100
# Description: as §1
# goosegrass = experiment: Test F preemergence test; type: in vivo, Eleusine indica; details: scale 0 to 100
# Description: as §1
# southern sandbur = experiment: Test F preemergence test; type: in vivo, Cenchrus echinatus; details: scale 0 to 100
# Description: as §1
smiles,measurement,setting,value
CCn1nc(C(F)(F)F)c(CS(=O)(=O)c2cc(C)cc[n+]2[O-])c1OCC(F)(F)F [Compound 64],"Plant response rating, Crabgrass, Large","large crabgrass; 16 g ai/ha, preemergence",10
same,"Crabgrass, Large plant response rating","large crabgrass; 62 g ai/ha, Preemergence",75
same,"Crabgrass, Large plant response rating","large crabgrass; 125 g ai/ha, preemergence",95
same,"Plant response rating, Crabgrass, Large","large crabgrass; Preemergence, 31 g ai/ha",65
same,"Plant response rating, Surinam Grass","Surinam grass; 16 g ai/ha, preemergence",10
same,Surinam Grass plant response rating,"Surinam grass; 125 g ai/ha, preemergence",100
same,"Plant response rating, Surinam Grass","Surinam grass; Preemergence, 62 g ai/ha",95
same,"Plant response rating, Surinam Grass","Surinam grass; Preemergence, 31 g ai/ha",90
same,"Bromegrass, Downy plant response rating","downy brome; 62 g ai/ha, Preemergence, scale 0 to 100",30
same,"Bromegrass, Downy plant response rating","downy brome; 125 g ai/ha, preemergence, scale 0 (no effect) to 100 (complete control)",85
same,"Plant response rating (0 to 100), Bromegrass, Downy","downy brome; Postemergence, 31 g ai/ha",0
same,"Plant response rating, Bromegrass, Downy","downy brome; Postemergence, 62 g ai/ha, scale 0 to 100, 0 no effect, 100 complete control",0
same,"Plant response rating, Bromegrass, Downy","downy brome; Postemergence, 125 g ai/ha, scale 0 to 100, 0 no effect, 100 complete control",10
same,"Plant response rating, Bromegrass, Downy","downy brome; Postemergence, 250 g ai/ha, scale 0 to 100, 0 no effect, 100 complete control",20
same,"Plant response rating, Bromegrass, Downy","downy brome; Preemergence, 31 g ai/ha, scale 0 to 100 (0 no effect, 100 complete control)",30
same,"Bromegrass, Downy plant response rating","downy brome; preemergence, 250 g ai/ha, scale 0 (no effect) to 100 (complete control)",100
same,"Plant response rating, Crabgrass, Large","crabgrass; Postemergence, 125 g ai/ha",80
same,"Crabgrass, Large plant response rating","crabgrass; Postemergence, 500 g ai/ha, 0 is no effect, 100 is complete control",90
same,"Crabgrass, Large plant response rating","crabgrass; Preemergence, 125 g ai/ha, 0 no effect, 100 complete control",80
same,"Plant response rating, Crabgrass, Large","crabgrass; Preemergence, 500 g ai/ha",100
same,"Plant response rating, Ragweed","common ragweed; 16 g ai/ha, preemergence",0
same,Ragweed plant response rating,"common ragweed; 125 g ai/ha, preemergence",85
same,"Plant response rating, Ragweed","common ragweed; Preemergence, 62 g ai/ha",50
same,"Plant response rating, Ragweed","common ragweed; Preemergence, 31 g ai/ha",30
same,"Plant response rating, Foxtail, Green","green foxtail; 16 g ai/ha, preemergence",15
same,"Foxtail, Green plant response rating","green foxtail; 62 g ai/ha, Preemergence",95
same,"Foxtail, Green plant response rating","green foxtail; 125 g ai/ha, preemergence",100
same,"Plant response rating, Foxtail, Green","green foxtail; Preemergence, 31 g ai/ha",60
same,"Plant response rating, Field Bindweed","field bindweed; 16 g ai/ha, preemergence",0
same,Field Bindweed plant response rating,"field bindweed; 62 g ai/ha, Preemergence",0
same,Field Bindweed plant response rating,"field bindweed; 125 g ai/ha, preemergence",40
same,"Plant response rating, Field Bindweed","field bindweed; Preemergence, 31 g ai/ha",0
same,"Plant response rating, Johnsongrass","johnsongrass; 16 g ai/ha, preemergence",0
same,Johnsongrass plant response rating,"johnsongrass; 62 g ai/ha, Preemergence",90
same,Johnsongrass plant response rating,"johnsongrass; 125 g ai/ha, preemergence",100
same,"Plant response rating, Johnsongrass","johnsongrass; Preemergence, 31 g ai/ha",75
same,"Plant response rating, Ryegrass, Italian","Italian ryegrass; 16 g ai/ha, preemergence",0
same,"Ryegrass, Italian plant response rating","Italian ryegrass; 125 g ai/ha, preemergence",90
same,"Plant response rating, Ryegrass, Italian","Italian ryegrass; Preemergence, 62 g ai/ha",75
same,"Plant response rating, Ryegrass, Italian","Italian ryegrass; Preemergence, 31 g ai/ha",20
same,"Plant response rating, Itchgrass","itchgrass; 16 g ai/ha, preemergence",0
same,Itchgrass plant response rating,"itchgrass; 62 g ai/ha, Preemergence",30
same,Itchgrass plant response rating,"itchgrass; 125 g ai/ha, preemergence",75
same,"Plant response rating, Itchgrass","itchgrass; Preemergence, 31 g ai/ha",30
same,"Plant response rating, Goosegrass","goosegrass; 16 g ai/ha, preemergence",75
same,Goosegrass plant response rating,"goosegrass; 62 g ai/ha, Preemergence",90
same,Goosegrass plant response rating,"goosegrass; 125 g ai/ha, preemergence",98
same,"Plant response rating, Goosegrass","goosegrass; Preemergence, 31 g ai/ha",90
same,"Plant response rating, Sandbur","southern sandbur; 16 g ai/ha, preemergence",25
same,Sandbur plant response rating,"southern sandbur; 125 g ai/ha, preemergence",100
same,"Plant response rating, Sandbur","southern sandbur; Preemergence, 62 g ai/ha",80
same,"Plant response rating, Sandbur","southern sandbur; Preemergence, 31 g ai/ha",80
